Measurements from patent publication US11464749B2, “Bismuth-thiol compositions and methods of use” (Microbion Corporation, priority 2018, dated 2022).
Values joined by “and” are separate entries in the source; they are usually repeats but may differ in a detail not shown here. Equal values may be shown once. Read-outs that look alike come from different tables or passages of the source.

Experiments:
E. coli ATCC 25922 = settings: control strain ATCC 25922; per CLSI M100-S24 or provided by Microbion; cited from earlier work
[1] = Face mask inhalation in beagle dogs: clinical chemistry; assay type: in vivo; settings: sampling times not given
Method: Once adequately conditioned to the restraint device and face-masks, the animals are individually exposed to the test article aerosols. Animals receive a single face-mask inhalation exposure in a ramp study design to test article aerosols for up to 60 min. Animal observations during and post exposure determine the tolerance of inhaled BisEDT aerosols.
Group 1 (vehicle) are exposed to a vehicle atmosphere for 30 minutes. Group 2 (50 μg/kg) are exposed to BisEDT for 30 minutes. Target concentrations and exposure durations for Groups 3-5 are based on the presence of any toxicity via clinical observations or gross necropsy findings. In each of Groups 3-5, if no adverse clinical signs of toxicity are observed, the next groups' exposure will be conducted at a higher target dose. If adverse clinical signs of toxicity are observed, the next groups' exposure will be conducted at a lower target dose. This approach is repeated for all BisEDT doses. The final documented exposure duration is the maximum tolerated dose or the maximum feasible dose.
The aerosol generation system couples a commercially available compressed air jet nebulizer to a chamber that allows the aerosols to transition to the animals. Exposure is by face-mask inhalation per the study design above. […] Formulation concentration and exposure duration are modulated to achieve target doses if necessary.
Blood Collections and Bioanalytical Analysis: Blood are collected for pharmacokinetic (PK) analysis prior to exposure, then at 4 hr (±5 min) post exposure, and again on Day 1, Day 2, Day 7 (pre- and 4 hr (±5 min)-post exposure), Day 8, Day 9, Day 10, Day 11, Day 12, Day 13, and Day 14. A total of 0.25 mL is collected at each timepoint. No PK blood is collected from the vehicle control (Group 1) animals; only animals exposed to BisEDT have blood collected for PK analysis. Collected samples are flash frozen without processing for shipment to Medpace for bioanalytical analysis. Additional blood is collected from all animals in all groups for hematology (1 mL) and clinical chemistry (1 mL) at baseline, Day 7 (pre-exposure), and again at euthanasia. Blood (2-2 mL) is collected from all animals at necropsy for coagulation analysis (d-Dimer, fibrinogen, PT, and PTT).
For clinical chemistry analyses, whole blood (1 mL) is placed into serum separator or clot tube and […] by centrifugation at a minimum of 1300 g at 2 to 8° C. for 10 (±1) min. Plasma samples are stored at −70 to −90° C. until analysis.
Clinical chemistry samples are analyzed on a Hitachi Modular Analytics Clinical Chemistry System (Roche Diagnostics, Indianapolis, Ind.).

A. terreus = test: Broth microdilution antifungal susceptibility (Example 13); assay type: cell-based; settings: Aspergillus terreus, A. terreus MMX 8229
M. abscessus complex = test: MIC against CF bacterial strains (Example 5); assay type: cell-based, Mycobacterium abscessus; settings: Mycobacteroides abscessus
Method: (§1) A range of CF-isolated strains of Mycobacterium avium and Mycobacterium abscessus were included; which allows for understanding of the activity against non-tubercular Mycobacteria (NTM). Two distinct bismuth-thiol compounds were evaluated, including BisEDT and BisBDT. […] The CF-isolates of greater clinical relevance, including both M abscessus spp. and Burkholderia spp., were both consistently found to be much more susceptible to BisEDT and BisBDT.

[2] = system: B. cepcacia complex (not further speciated); test: MIC against CF bacterial strains (Example 5); assay type: cell-based; settings: beta lactam-S, TMP/SMX-S
Method: as §1

[3] = system: B. dolosa (cepacia complex); test: MIC against CF bacterial strains (Example 5); assay type: cell-based; settings: Burkholderia dolosa; strain BC 11, CF isolate, beta lactam-R, TMP/SMX-S, FQ-R
Method: as §1

[4] = system: B. multivorans (cepacia complex); test: MIC against CF bacterial strains (Example 5); assay type: cell-based; settings: Burkholderia multivorans
Method: as §1

Enterobacteriaceae = test: Broth microdilution MIC (Example 11); settings: Escherichia coli, read-out: MIC values
[5] = Grp 1 (1001 Male, 1002 Female, Avg), 3 lines per subject
[6] = Grp 2 (2001 Male, 2002 Female, Avg), 3 lines per subject
[7] = Grp 3 (3001 Male, 3002 Female, Avg), 3 lines per subject
[8] = Grp 4 (4001 Male, 4004 Female, Avg; 4002 Female, 4003 Male), 2-3 lines per subject

C1C[S][Bi]([S]CC[S][Bi]2[S]CC[S]2)[S]1 [BisEDT, bismuth-1,2-ethanedithiol]
Expected MIC: goal (acceptable range) (E. coli ATCC 25922): 1 (0.5-2) mcg/mL | AGR [1, 5]: 2.6 and 1.9 (2×) and 2.1 (2×) | ALB [1, 5]: 3.7 g/dL | ALPK [1, 5]: 125 IU/L and 120 IU/L and 248 IU/L and 243 IU/L and 235 IU/L and 91 IU/L | ALT [1, 5]: 26 IU/L and 27 IU/L and 29 IU/L and 21 IU/L | AST [1, 5]: 33 IU/L (2×) and 29 IU/L (2×) and 27 IU/L | BUN [1, 5]: 13 mg/dL (2×) and 17 mg/dL | CA2 [1, 5]: 10.3 mg/dL | CHOL [1, 5]: 129 mg/dL and 116 mg/dL and 132 mg/dL and 130 mg/dL and 107 mg/dL | CREA [1, 5]: 0.5 mg/dL | GLOB [1, 5]: 1.4 g/dL and 1.5 g/dL and 1.8 g/dL | GLUC [1, 5]: 88 mg/dL and 89 mg/dL and 90 mg/dL and 78 mg/dL and 92 mg/dL (2×) | K [1, 5]: 4.5 mmo/L and 4.7 mmo/L (2×) and 4.2 mmo/L and 5.1 mmo/L | Na [1, 5]: 150 mmo/L | TP [1, 5]: 5.5 g/dL and 4.9 g/dL | TRIG [1, 5]: 32 mg/dL and 29 mg/dL and 53 mg/dL and 39 mg/dL and 38 mg/dL and 37 mg/dL | AGR [1, 6]: 1.9 and 2.0 and 1.7 and 2.3 (2×) | ALB [1, 6]: 3.4 g/dL and 3.7 g/dL | ALT [1, 6]: 22 IU/L (3×) and 18 IU/L and 29 IU/L and 27 IU/L | AST [1, 6]: 48 IU/L and 36 IU/L (2×) and 35 IU/L and 41 IU/L and 38 IU/L | BUN [1, 6]: 12 mg/dL and 16 mg/dL and 14 mg/dL (2×) | CHOL [1, 6]: 114 mg/dL | Cl [1, 6]: 108 mmo/L and 110 mmo/L and 114 mmo/L | GLOB [1, 6]: 2.0 g/dL and 1.9 g/dL and 1.6 g/dL (2×) | GLUC [1, 6]: 91 mg/dL and 97 mg/dL and 95 mg/dL and 89 mg/dL | K [1, 6]: 4.5 mmo/L and 4.9 mmo/L and 5.0 mmo/L and 5.2 mmo/L and 4.6 mmo/L | TP [1, 6]: 5.0 g/dL and 5.5 g/dL and 5.3 g/dL | TRIG [1, 6]: 66 mg/dL and 80 mg/dL and 63 mg/dL and 38 mg/dL and 39 mg/dL and 31 mg/dL | AGR [1, 7]: 2.0 (2×) and 2.1 and 2.3 and 1.8 and 2.6 | ALB [1, 7]: 3.2 g/dL and 3.7 g/dL | ALPK [1, 7]: 90 IU/L | ALT [1, 7]: 26 IU/L and 24 IU/L and 28 IU/L and 20 IU/L (2×) | AST [1, 7]: 33 IU/L and 28 IU/L | BUN [1, 7]: 13 mg/dL and 17 mg/dL and 33 mg/dL and 11 mg/dL and 25 mg/dL | CHOL [1, 7]: 100 mg/dL | CREA [1, 7]: 0.7 mg/dL and 0.5 mg/dL and 0.9 mg/dL | Cl [1, 7]: 110 mmo/L | GLOB [1, 7]: 1.7 g/dL and 2.0 g/dL and 1.4 g/dL | GLUC [1, 7]: 100 mg/dL and 88 mg/dL and 51 mg/dL and 112 mg/dL and 90 mg/dL and 65 mg/dL | K [1, 7]: 4.7 mmo/L and 5.8 mmo/L and 5.5 mmo/L and 5.3 mmo/L | TP [1, 7]: 4.8 g/dL and 5.0 g/dL (2×) and 5.5 g/dL | TRIG [1, 7]: 26 mg/dL and 34 mg/dL (2×) and 52 mg/dL and 43 mg/dL and 58 mg/dL | AGR [1, 8]: 2.3 and 2.0 and 1.7 (2×) and 1.6 | ALB [1, 8]: 3.6 g/dL and 3.2 g/dL | ALT [1, 8]: 27 IU/L (2×) and 25 IU/L and 24 IU/L and 20 IU/L and 21 IU/L and 40 IU/L and 23 IU/L | AST [1, 8]: 32 IU/L (2×) and 34 IU/L and 38 IU/L and 31 IU/L and 35 IU/L and 30 IU/L | BUN [1, 8]: 11 mg/dL (2×) and 16 mg/dL and 15 mg/dL | CHOL [1, 8]: 147 mg/dL and 125 mg/dL and 124 mg/dL and 182 mg/dL and 169 mg/dL and 176 mg/dL | CREA [1, 8]: 0.5 mg/dL | GLOB [1, 8]: 1.6 g/dL and 2.1 g/dL (2×) and 2.0 g/dL | GLUC [1, 8]: 82 mg/dL and 86 mg/dL and 70 mg/dL and 96 mg/dL and 79 mg/dL and 109 mg/dL and 81 mg/dL | K [1, 8]: 4.8 mmo/L and 4.6 mmo/L and 5.1 mmo/L and 4.3 mmo/L and 5.3 mmo/L (2×) and 4.9 mmo/L (2×) | TP [1, 8]: 4.9 g/dL and 5.1 g/dL and 5.6 g/dL and 5.5 g/dL and 5.4 g/dL (2×) | TRIG [1, 8]: 49 mg/dL (2×) and 46 mg/dL and 40 mg/dL and 53 mg/dL (2×) and 44 mg/dL and 34 mg/dL and 41 mg/dL and 55 mg/dL

CC(S)C(C)S.[Bi] (stereo not drawn) [BisBDT, bismuth-2,3-butanedithiol]
MIC (A. terreus; 24 hr, read-out: MIC0 24 hr): 0.25 µg/mL | MIC (A. terreus; 48 hr, read-out: MIC0 48 hr): 1 µg/mL | MIC (M. abscessus complex; AMT0068-40, M abscessus/massiliense complex, read-out: MIC): 0.06 µg/mL | MIC (M. abscessus complex; AMT 0068-40, MABSC CF isolate, macrolide-S, amikacin-I): 0.125 µg/mL | MIC (M. abscessus complex; AMT 0089-5, MABSC CF isolate, macrolide-R, amikacin-R): 0.125 µg/mL | MIC (M. abscessus complex; AMT0119-7, M abscessus/massiliense complex, read-out: MIC): < 0.03 µg/mL | MIC (M. abscessus complex; AMT 0119-7, MABSC CF isolate, macrolide-S, amikacin-I): 0.125 µg/mL | MIC (M. abscessus complex; AMT0130-8, M abscessus/massiliense complex, read-out: MIC): < 0.03 µg/mL | MIC (M. abscessus complex; AMT 0130-8, MABSC CF isolate, macrolide-S, amikacin-I, read-out: MIC): 0.0625 µg/mL | MIC (M. abscessus complex; AMT 0136-10, MABSC CF isolate, macrolide-R, amikacin-R, read-out: MIC): 0.0625 µg/mL | MIC (M. abscessus complex; AMT153-9, M abscessus/massiliense complex, read-out: MIC): < 0.03 µg/mL | MIC (M. abscessus complex; AMT 0153-9, MABSC CF isolate, macrolide-S, amikacin-I): 0.125 µg/mL | MIC (M. abscessus complex; AMT 0157-14, MABSC CF isolate, macrolide-R, amikacin-I): 0.125 µg/mL | MIC (M. abscessus complex; AMT 0166-29, MABSC CF isolate, macrolide-R, amikacin-R): 0.125 µg/mL | MIC (M. abscessus complex; AMT0493-2, M abscessus/massiliense complex, Amikacin resistant, read-out: MIC): 0.125 µg/mL | MIC (M. abscessus complex; AMT 0493-2, MABSC CF isolate, macrolide-S, amikacin-R): 0.5 µg/mL | MIC (M. abscessus complex; ATCC19977, ATCC 19977, M abscessus/massiliense complex, Macrolide resistant (inducible), read-out: MIC): < 0.03 µg/mL | MIC (M. abscessus complex; ATCC19977, ATCC 19977, M. abscessus abscessus, ATCC type strain, read-out: MIC): 0.25 µg/mL | MIC ([2]; strain BC 9, CF isolate, FQ-R): 0.5 µg/mL | MIC ([2]; strain PC 213, CF isolate, FQ-S): 1 µg/mL | MIC [3]: 0.5 µg/mL | MIC ([4]; strain BC 5, CF isolate, beta lactam-S, TMP/SMX-S, FQ-I): 2 µg/mL | MIC ([4]; strain BC5b): 1 µg/mL | MIC (Enterobacteriaceae): 0.5 to 2 µg/mL
